Results: patent EP0037495A1, “Pyrimidyl quinazolines, process for their preparation and pharmaceutical compositions containing them” (CASSELLA Aktiengesellschaft, priority 1980, dated 1981)

Test system: normotonen narkotisierten Ratte
Experiment: Blood pressure measurement in the normotensive anaesthetised rat
Assay type: in vivo
Details: mean; for WD min x̄ (Wirkungsdauer): time from onset of change until return to baseline
Experimental: 1. Blutdruckmessung an der normotonen narkotisierten Ratte
Männliche IVANOVAS-Ratten (300 - 340 g) des Stammes SIV 50 wurden durch Applikation von 66 mg/kg a-Chloralose (1,1 % Lösung, 0,6 ml/100 g) und 20 mg:kg Aprobarbital in die Schwanzvene narkotisiert. Die Trachea wurde kannuliert um die Spontanatmung zu erleichtern. Die Messung des Blutdruckes erfolgte blutig über einen in die Rechte A. carotis eingebundenen PE-Schlauch auf konventionelle Weise. Mittels eines Dreiwegehahnes konnte dieser PE-Schlauch zur i.a.-Applikation der Prüfsubstanzen benutzt werden, wobei jeweils ein Volumen von 0,1 ml injiziert wurde. Durch Nachspülen mit 0,9 % NaCl gelangten die Substanzen über die Vertebralarterie auch in Richtung Zentralnervensystem bevor die Verteilung im allgemeinen Kreislauf erfolgte.
Zahlenmäßig ausgewertet wurde die maximale systolische und diastolische Blutdrucksenkung sowie die maximale Änderung der Herzfrequenz. Als Wirkdauer galt die Zeit vom Eintritt der Veränderung bis zum Erreichen des Ausgangswertes.

| SMILES | WD min x̄ (Wirkungsdauer) (dose 0.01 mg/kg i.a.) [min] | HF Δ s/min x̄ (maximal change of heart rate, dose 0.1 mg/kg i.a.) [s/min] | WD min x̄ (Wirkungsdauer) (dose 0.1 mg/kg i.a.) [min] |
| --- | --- | --- | --- |
| COc1cc2nc(N3CCN(c4c([N+](=O)[O-])c(=O)n(C)c(=O)n4C)CC3)nc(N)c2cc1OC [*] | 36 |  |  |
| COc1cc2nc(N3CCN(C(=O)c4ccco4)CC3)nc(N)c2cc1OC [Prazosin] |  | 0 | 60 |
